Experimental data from patent US7164003B2, “Histamine receptor H4 polynucleotides” (Merck & Co. Inc., priority 2001, dated 2007).

Tests used:
H4b receptor variant = settings: 1 μM in PBS, 37° C., 30 min, transfected COS-7 cells, H4b variant cDNA, compared with H4a-transfected cells
Method: (§1) The full length wild type […]) and the isoforms H4b and […] were cloned in pCDNA3.1 […] Tag eukaryotic expression vector for expression in COS-7 cells. The COS-7 cells grown in culture chambers were transfected with 2 μg of plasmid DNA containing either one of the H4 isoforms or the wild type H4 with superfect (Qiagen) transfection reagent. Binding of Histamine to receptor or receptor variants was determined by BODIPY-L-Histamine or Fluorescein Histamine (Molecular Probes, Eugene Oreg.). Briefly, the transfected cells were washed with PBS and 1 μM concentration of BODIPY-L-Histamine or Fluorescein Histamine in PBS was added to the cells and incubated at 37° C. for 30-min. Unbound fluorescent labelled histamine was washed in cold PBS and the slides were examined immediately under a fluorescent microscope.

H4c receptor variant = settings: 1 μM in PBS, 37° C., 30 min, transfected COS-7 cells, H4c variant cDNA, compared with H4a-transfected cells
Method: as §1

| Binding of fluorescent labelled histamine (fluorescence under microscope) versus H4 wildtype (H4a) (H4b receptor variant) | Binding of fluorescent labelled histamine (fluorescence under microscope) versus H4 wildtype (H4a) (H4c receptor variant) | Substance |
| --- | --- | --- |
| qualitatively comparable fluorescence | qualitatively comparable fluorescence | BODIPY-L-Histamine |
| qualitatively comparable fluorescence | qualitatively comparable fluorescence | Fluorescein Histamine |
